In patent EP4667483A1, “HUMAN TRANSFERRIN RECEPTOR-BINDING PEPTIDE” (JCR Pharmaceuticals Co., Ltd., priority 2023, dated 2024):
Like-named read-outs stand apart in the source and are kept apart here. Numbered stars: 1 amine (or outer) side, 2 acyl side, 3 side chain; on linkers, the order of the positions; unused ones are H or OH. Bridge positions count the residues as written; N and C are the ends. Square brackets hold non-standard residues; d marks the D form. Side chains are listed from the residue outwards. Peptide text beside a SMILES is read from it. * marks the point of attachment. Trp(1-CH2COOH) = N[C@@H](Cc1cn(CC(=O)O)c2ccccc12)C(=O)O; CH2CON(CH2CH2)2NCH2COOH = O=C(O)CN1CCN(C(=O)C*)CC1; NMePhe(4-COOH) = CN[C@@H](Cc1ccc(C(=O)O)cc1)C(=O)O; X1 = O=C([C@H](Cc1cccc(C(=O)[*:3])c1)N[*:1])[*:2]; Nle(6-morpholino) = N[C@@H](CCCCN1CCOCC1)C(=O)O; Phe(3-COOH) = N[C@@H](Cc1cccc(C(=O)O)c1)C(=O)O; Trp(7-aza) = N[C@@H](Cc1c[nH]c2ncccc12)C(=O)O; NH(CH2CH2O)8Me = COCCOCCOCCOCCOCCOCCOCCOCCN*; NMePhe(3-Cl) = CN[C@@H](Cc1cccc(Cl)c1)C(=O)O; Piperazinyl(4-CH2COOH) = O=C(O)CN1CCN(*)CC1; 3Pal(6-NH2) = Nc1ccc(C[C@H](N)C(=O)O)cn1; NMeW = CN[C@@H](Cc1c[nH]c2ccccc12)C(=O)O; Lys(N3) = [N-]=[N+]=NCCCC[C@H](N)C(=O)O; NMe3Pal = CN[C@@H](Cc1cccnc1)C(=O)O; NMeY = CN[C@@H](Cc1ccc(O)cc1)C(=O)O; Nva(3-Et) = CCC(CC)[C@H](N)C(=O)O; NMeF = CN[C@@H](Cc1ccccc1)C(=O)O; 4Pal = N[C@@H](Cc1ccncc1)C(=O)O; PEG4 = NCCOCCOCCOCCOCCC(=O)O; Carboxymethyl = O=C(O)C*; CO = O=C([*:1])[*:2]

Target: human transferrin receptor (hTfR) (Homo sapiens, UniProt P02786)
Experiment: SPR measurement under pH 7.4 conditions (Biacore T200, CM3 chip, hTfR captured by His Tag antibody)
Type: binding
Conditions: SPR, pH 7.4
Procedure: Molecular interactions between the synthesized peptides and the transferrin receptor (hTfR) were evaluated by surface plasmon resonance (SPR) using the following method. The specific assay procedure is described below.
An CM3 sensor chip (Cytiva) was inserted into BiacoreT200 (Cytiva), then a priming operation was performed three times by using a running buffer: HBS-P+, pH7.4 (Cytiva), and an equilibrium state was created at a flow rate of […]. Ligand immobilization was performed at a flow rate of 10 µL/min. After mixing 50 µL each of 60 mM EDC solution (Cytiva) and 650 mM NHS solution (Cytiva), the mixture was reacted at a flow rate of 10 µL/min for 420 seconds. 150 µL of […] THE His Tag Antibody, mAb, Mouse (GenScript) was prepared by diluting with 10 mM acetic acid solution (pH 5.0), and reacted at a flow rate of 10 µL/ min for 420 seconds. Then, THE His Tag Antibody, mAb, Mouse (GenScript) was immobilized as a capture molecule on the CM3 sensor chip. After immobilization, capping was performed by reacting with 1.0 M ethanolamine solution (Cytiva) at a flow rate of 10 µL/min for 420 seconds. 300 nM hTfR was captured at a flow rate of 10 µL/min, a peptide solution prepared at 10 mM in DMSO was diluted with running buffer to achieve a final concentration of 10 µM, and peptide solutions at 250 nM, 125 nM, 62.5 nM, 25 nM, and 12.5 nM were prepared. . The peptide samples were reacted at a flow late of 30 µL/min for 120 seconds, followed by dissociation for 600 seconds. The kinetics of the peptide against hTfR was obtained by SPR measurement for the above samples.
The kinetic evaluation model was single-cycle kinetics, and curve fitting was performed using Biacore T200 Evaluation Software Version 3.0 (Cytiva). The binding of the peptide to hTfR was evaluated by performing curve fitting on the obtained sensorgram by the least squares method and obtaining the kon value, the koff value, and the KD value.

[1] = Table 2-1-2, read-out: hTfR SPR pH7.4 KD(n M)

Chain of human transferrin receptor (hTfR) (P02786 whole entry): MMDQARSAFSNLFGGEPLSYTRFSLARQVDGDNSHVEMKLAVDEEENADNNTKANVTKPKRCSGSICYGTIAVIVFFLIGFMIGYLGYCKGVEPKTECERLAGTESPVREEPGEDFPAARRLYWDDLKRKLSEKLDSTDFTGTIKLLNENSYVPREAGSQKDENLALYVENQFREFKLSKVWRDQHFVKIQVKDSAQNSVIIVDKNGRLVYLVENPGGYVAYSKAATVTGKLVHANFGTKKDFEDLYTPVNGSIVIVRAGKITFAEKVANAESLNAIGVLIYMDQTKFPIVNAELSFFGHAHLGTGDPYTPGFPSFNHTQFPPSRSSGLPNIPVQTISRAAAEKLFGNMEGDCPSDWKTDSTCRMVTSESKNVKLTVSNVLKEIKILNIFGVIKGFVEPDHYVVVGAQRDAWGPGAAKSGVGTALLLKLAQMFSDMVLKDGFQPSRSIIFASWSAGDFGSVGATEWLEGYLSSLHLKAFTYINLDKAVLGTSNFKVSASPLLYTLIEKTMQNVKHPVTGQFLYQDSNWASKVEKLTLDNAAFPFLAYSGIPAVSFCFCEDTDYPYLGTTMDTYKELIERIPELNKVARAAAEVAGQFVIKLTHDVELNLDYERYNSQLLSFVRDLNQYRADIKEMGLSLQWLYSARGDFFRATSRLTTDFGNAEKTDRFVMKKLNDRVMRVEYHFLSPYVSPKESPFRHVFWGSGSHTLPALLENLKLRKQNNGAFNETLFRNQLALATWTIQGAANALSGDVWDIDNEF

CC[C@H](C)[C@@H]1NC(=O)[C@H](Cc2ccc(OCC(=O)N3CCN(CC(=O)O)CC3)cc2)NC(=O)[C@H](Cc2ccc(N)nc2)NC(=O)[C@H](CC(N)=O)NC(=O)[C@H](Cc2c[nH]c3ncccc23)NC(=O)[C@H](C(C)C)NC(=O)[C@H](Cc2cccc(Cl)c2)N(C)C(=O)[C@H](C(C)C)NC(=O)[C@H](C)NC(=O)CSC[C@@H](C(=O)NCCOCCOCCOCCOCCC(N)=O)NC(=O)[C@H](Cc2ccc(O)cc2)N(C)C(=O)[C@H](Cc2ccncc2)NC(=O)[C@H](CCCCN2CCOCC2)NC(=O)[C@H](CCCCNC(=O)N2CCN(CC(=O)O)CC2)NC(=O)[C@H]([C@@H](C)CC)NC1=O [compound 157] ({CH2CO}-AV[NMePhe(3-Cl)]V[Trp(7-aza)]N[3Pal(6-NH2)]Y(CH2CON(CH2CH2)2NCH2COOH)IIK([CO-Piperazinyl(4-CH2COOH)])[Nle(6-morpholino)][4Pal][NMeY]C[PEG4]-NH2; thioether N-15)
Kd [1]: 15 nM

CC[C@H](C)[C@@H]1NC(=O)[C@H](Cc2ccc(OCC(=O)N3CCN(CC(=O)O)CC3)cc2)NC(=O)[C@H](Cc2ccc(N)nc2)NC(=O)[C@H](CC(N)=O)NC(=O)[C@H](Cc2c[nH]c3ncccc23)NC(=O)[C@H](C(C)C)NC(=O)[C@H](Cc2cccc(Cl)c2)N(C)C(=O)[C@H](C(C)C)NC(=O)[C@H](C)NC(=O)CSC[C@@H](C(=O)NCCOCCOCCOCCOCCC(N)=O)NC(=O)[C@H](Cc2ccc(O)cc2)N(C)C(=O)[C@H](Cc2cccc(C(=O)O)c2)NC(=O)[C@H](CCCNC(=N)N)NC(=O)[C@H](CCC(=O)NCCOCCOCCOCCOCCOCCOCCOCCOC)NC(=O)[C@H]([C@@H](C)CC)NC1=O [compound 159] ({CH2CO}-AV[NMePhe(3-Cl)]V[Trp(7-aza)]N[3Pal(6-NH2)]Y(CH2CON(CH2CH2)2NCH2COOH)IIE(NH(CH2CH2O)8Me)R[Phe(3-COOH)][NMeY]C[PEG4]-NH2; thioether N-15)
Kd [1]: 6.55 nM

CCC(CC)[C@@H]1NC(=O)[C@H](Cc2ccc(OCC(=O)O)cc2)NC(=O)[C@H](Cc2ccc(O)cc2)NC(=O)[C@H](CC(N)=O)NC(=O)[C@H](Cc2cn(CC(=O)O)c3ccccc23)NC(=O)[C@H](C(C)C)NC(=O)[C@H](Cc2cccc(Cl)c2)N(C)C(=O)[C@H](C(C)C)NC(=O)[C@H](C)NC(=O)CSC[C@@H](C(=O)NCCOCCOCCOCCOCCC(N)=O)NC(=O)[C@H](Cc2cccnc2)N(C)C(=O)[C@H](Cc2cccc(C(=O)O)c2)NC(=O)[C@H](CCCNC(=N)N)NC(=O)[C@H](CCC(N)=O)NC(=O)[C@H]([C@@H](C)CC)NC1=O [compound 97] ({CH2CO}-AV[NMePhe(3-Cl)]V[Trp(1-CH2COOH)]NYY(Carboxymethyl)[Nva(3-Et)]IQR[Phe(3-COOH)][NMe3Pal]C[PEG4]-NH2; thioether N-15)
Kd (peptide with the linker named in the table, read-out: hTfR SPR pH7.4 KD): 22.6 nM

CC[C@H](C)[C@@H]1NC(=O)[C@H](Cc2ccc(OCC(=O)N3CCN(CC(=O)O)CC3)cc2)NC(=O)[C@H](Cc2ccc(N)nc2)NC(=O)[C@H](CC(N)=O)NC(=O)[C@H](Cc2cn(CC(=O)O)c3ccccc23)NC(=O)[C@H](C(C)C)NC(=O)[C@H](Cc2cccc(Cl)c2)N(C)C(=O)[C@H](C(C)C)NC(=O)[C@H](C)NC(=O)CSC[C@@H](C(=O)NCCOCCOCCOCCOCCC(N)=O)NC(=O)[C@H](Cc2ccc(O)cc2)N(C)C(=O)[C@H](Cc2ccncc2)NC(=O)[C@H](CCCCN2CCOCC2)NC(=O)[C@H](CCC(=O)NCCOCCOCCOCCOCCOCCOCCOCCOC)NC(=O)[C@H]([C@@H](C)CC)NC1=O [compound 155] ({CH2CO}-AV[NMePhe(3-Cl)]V[Trp(1-CH2COOH)]N[3Pal(6-NH2)]Y(CH2CON(CH2CH2)2NCH2COOH)IIE(NH(CH2CH2O)8Me)[Nle(6-morpholino)][4Pal][NMeY]C[PEG4]-NH2; thioether N-15)
Kd [1]: 28.4 nM

CCC(CC)[C@@H]1NC(=O)[C@H](Cc2ccc(O)cc2)NC(=O)[C@H](Cc2ccc(O)cc2)NC(=O)[C@H](CC(N)=O)NC(=O)[C@H](Cc2c[nH]c3ccccc23)N(C)C(=O)[C@H](C(C)C)NC(=O)[C@H](Cc2ccccc2)N(C)C(=O)[C@H](C(C)C)NC(=O)[C@H](C)NC(=O)CSC[C@@H](C(=O)NCC(=O)N[C@@H](CCCCN=[N+]=[N-])C(N)=O)NC(=O)[C@H](Cc2ccc(O)cc2)N(C)C(=O)[C@H](Cc2cccc(C(=O)NCCOCCOCCOCCOCCC(=O)O)c2)NC(=O)[C@H](CCCNC(=N)N)NC(=O)[C@H](CCCCN)NC(=O)[C@H]([C@@H](C)CC)NC1=O [compound 195] ({CH2CO}-AV[NMeF]V[NMeW]NYY[Nva(3-Et)]IKR[X1](PEG4)[NMeY]CG[Lys(N3)]-NH2; thioether N-15)
Kd (Table 1-3-2-2, read-out: hTfR SPR pH7.4 KD): 5.77 nM

CC[C@H](C)[C@@H]1NC(=O)[C@H](Cc2ccc(OC)cc2)NC(=O)[C@H](Cc2ccc(N)nc2)NC(=O)[C@H](CC(N)=O)NC(=O)[C@H](Cc2cnc3ccccn23)NC(=O)[C@H](C(C)C)NC(=O)[C@H](Cc2ccccc2)N(C)C(=O)[C@H](C(C)C)NC(=O)[C@H](C)NC(=O)CSC[C@@H](C(=O)NCC(=O)N[C@H](CCC(=O)O)C(=O)N[C@H](CCC(=O)O)C(=O)N[C@H](CCC(=O)O)C(=O)N[C@H](CO)C(=O)N[C@H](CO)C(=O)N[C@@H](CCCCN=[N+]=[N-])C(N)=O)NC(=O)[C@H](Cc2ccc(O)cc2)N(C)C(=O)[C@H](Cc2ccncc2)NC(=O)[C@H](CCCNC(=N)N)NC(=O)[C@H](CCCNC(=N)N)NC(=O)[C@H]([C@@H](C)CC)NC1=O [compound 202]
Kd (Table 2-2, read-out: hTfR SPR pH7.4 KD): 515 nM

CC[C@H](C)[C@@H]1NC(=O)[C@H](Cc2ccc(OCC(=O)N3CCN(CC(=O)O)CC3)cc2)NC(=O)[C@H](Cc2ccc(N)nc2)NC(=O)[C@H](CC(N)=O)NC(=O)[C@H](Cc2c[nH]c3ncccc23)NC(=O)[C@H](C(C)C)NC(=O)[C@H](Cc2cccc(Cl)c2)N(C)C(=O)[C@H](C(C)C)NC(=O)[C@H](C)NC(=O)CSC[C@@H](C(=O)NCCOCCOCCOCCOCCC(N)=O)NC(=O)[C@H](Cc2ccc(O)cc2)N(C)C(=O)[C@H](Cc2ccncc2)NC(=O)[C@H](CCCCN2CCOCC2)NC(=O)[C@H](CCC(=O)NCCOCCOCCOCCOCCOCCOCCOCCOC)NC(=O)[C@H]([C@@H](C)CC)NC1=O [compound 154] ({CH2CO}-AV[NMePhe(3-Cl)]V[Trp(7-aza)]N[3Pal(6-NH2)]Y(CH2CON(CH2CH2)2NCH2COOH)IIE(NH(CH2CH2O)8Me)[Nle(6-morpholino)][4Pal][NMeY]C[PEG4]-NH2; thioether N-15)
Kd [1]: 32.6 nM

CC[C@H](C)[C@@H]1NC(=O)[C@H](Cc2ccc(OCC(=O)N3CCN(CC(=O)O)CC3)cc2)NC(=O)[C@H](Cc2ccc(N)nc2)NC(=O)[C@H](CC(N)=O)NC(=O)[C@H](Cc2c[nH]c3ncccc23)NC(=O)[C@H](C(C)C)NC(=O)[C@H](Cc2cccc(Cl)c2)N(C)C(=O)[C@H](C(C)C)NC(=O)[C@H](C)NC(=O)CSC[C@@H](C(=O)NCCOCCOCCOCCOCCC(N)=O)NC(=O)[C@H](Cc2ccc(O)cc2)N(C)C(=O)[C@H](Cc2ccncc2)NC(=O)[C@H](CCCNC(=N)N)NC(=O)[C@H](CCC(=O)NCCOCCOCCOCCOCCOCCOCCOCCOC)NC(=O)[C@H]([C@@H](C)CC)NC1=O [compound 153]
Kd [1]: 44.3 nM

CCC(CC)[C@@H]1NC(=O)[C@H](Cc2ccc(OCC(=O)O)cc2)NC(=O)[C@H](Cc2ccc(N)nc2)NC(=O)[C@H](CC(N)=O)NC(=O)[C@H](Cc2c[nH]c3ccccc23)NC(=O)[C@H](C(C)C)NC(=O)[C@H](Cc2cccc(Cl)c2)N(C)C(=O)[C@H](C(C)C)NC(=O)[C@H](C)NC(=O)CSC[C@@H](C(=O)NCCOCCOCCOCCOCCC(N)=O)NC(=O)[C@H](Cc2ccc(C(=O)O)cc2)N(C)C(=O)[C@H](Cc2cccc(C(=O)O)c2)NC(=O)[C@H](CCCNC(=N)N)NC(=O)[C@H](CCC(=O)NCCOCCOCCOCCOCCOCCOCCOCCOC)NC(=O)[C@H]([C@@H](C)CC)NC1=O [compound 85] ({CH2CO}-AV[NMePhe(3-Cl)]VWN[3Pal(6-NH2)]Y(Carboxymethyl)[Nva(3-Et)]IE(NH(CH2CH2O)8Me)R[Phe(3-COOH)][NMePhe(4-COOH)]C[PEG4]-NH2; thioether N-15)
Kd (read-out: hTfR SPR pH7.4 KD): 234 nM

CCC(CC)[C@@H]1NC(=O)[C@H](Cc2ccc(OCC(=O)O)cc2)NC(=O)[C@H](Cc2ccc(N)nc2)NC(=O)[C@H](CC(N)=O)NC(=O)[C@H](Cc2c[nH]c3ncccc23)NC(=O)[C@H](C(C)C)NC(=O)[C@H](Cc2cccc(Cl)c2)N(C)C(=O)[C@H](C(C)C)NC(=O)[C@H](C)NC(=O)CSC[C@@H](C(=O)NCCOCCOCCOCCOCCC(N)=O)NC(=O)[C@H](Cc2ccc(C(=O)O)cc2)N(C)C(=O)[C@H](Cc2cccc(C(=O)O)c2)NC(=O)[C@H](CCCNC(=N)N)NC(=O)[C@H](CCC(=O)NCCOCCOCCOCCOCCOCCOCCOCCOC)NC(=O)[C@H]([C@@H](C)CC)NC1=O [compound 161] ({CH2CO}-AV[NMePhe(3-Cl)]V[Trp(7-aza)]N[3Pal(6-NH2)]Y(Carboxymethyl)[Nva(3-Et)]IE(NH(CH2CH2O)8Me)R[Phe(3-COOH)][NMePhe(4-COOH)]C[PEG4]-NH2; thioether N-15)
Kd [1]: 12200 nM
